# Patent US20210267944A1 (BioXcel Therapeutics, Inc., priority 2018, published 2021)
# Counter-ions that a name gives are not always drawn. Like-named read-outs stand apart in the source and are kept apart here.
# Settings: for Diastolic blood pressure Max / Diastolic blood pressure Mean ± SD / Diastolic blood pressure Median / Diastolic blood pressure Min / Pulse rate, Max / Pulse rate, Mean ± SD / Pulse rate, Median / Pulse rate, Min / Respiration rate, Max / Respiration rate, Mean ± SD / Respiration rate, Median / Respiration rate, Min / Systolic blood pressure, Max / Systolic blood pressure, Mean ± SD / Systolic blood pressure, Median / Systolic blood pressure, Min: SDAT patients, IV infusion
# Experimental: Study drug IV infusion was to be stopped at any time if any of the following occurred: • There was more than 20 mm Hg decrease in systolic or diastolic blood pressure. • There was an isolated drop in Systolic BP<100 mm of Hg. • There was an isolated drop Diastolic BP<60 mm of Hg. • There was a decrease in heart rate of 20 beats per minute or a drop below 50 beats per minute. • Attainment of a RASS of −1 at the end of each 30 minutes infusion period.
# Return to baseline parameters was defined as BP falling within 15 mm of Hg of baseline reading prior to drug administration or HR falling within 10 beats per minute of baseline reading prior to drug administration.
smiles,measurement,setting,value
Cc1cccc([C@H](C)c2cnc[nH]2)c1C [dexmedetomidine hydrochloride],all the vital signs values,SDAT,within clinically acceptable limits
same,Diastolic blood pressure Max,00:00 Hr,90 mm of Hg
same,Diastolic blood pressure Mean ± SD,00:00 Hr,80.9 ± 9.87 mm of Hg
same,Diastolic blood pressure Median,00:00 Hr,83.5 mm of Hg
same,Diastolic blood pressure Min,00:00 Hr,64 mm of Hg
same,"Pulse rate, Max",00:00 Hr,91 beats/min
same,"Pulse rate, Mean ± SD",00:00 Hr,79.0 ± 9.02 beats/min
same,"Pulse rate, Median",00:00 Hr,78.0 beats/min
same,"Pulse rate, Min",00:00 Hr,64 beats/min
same,"Respiration rate, Max",00:00 Hr,26 breaths/min
same,"Respiration rate, Mean ± SD",00:00 Hr,19.6 ± 2.50 breaths/min
same,"Respiration rate, Median",00:00 Hr,19.5 breaths/min
same,"Respiration rate, Min",00:00 Hr,17 breaths/min
same,"Systolic blood pressure, Max",00:00 Hr,169 mm of Hg
same,"Systolic blood pressure, Mean ± SD",00:00 Hr,143.2 ± 13.60 mm of Hg
same,"Systolic blood pressure, Median",00:00 Hr,140.0 mm of Hg
same,"Systolic blood pressure, Min",00:00 Hr,125 mm of Hg
same,Diastolic blood pressure Max,00:15 Hr,92 mm of Hg
same,Diastolic blood pressure Mean ± SD,00:15 Hr,82.1 ± 8.46 mm of Hg
same,Diastolic blood pressure Median,00:15 Hr,84.0 mm of Hg
same,Diastolic blood pressure Min,00:15 Hr,70 mm of Hg
same,"Pulse rate, Max",00:15 Hr,89 beats/min
same,"Pulse rate, Mean ± SD",00:15 Hr,78.2 ± 9.85 beats/min
same,"Pulse rate, Median",00:15 Hr,80.0 beats/min
same,"Pulse rate, Min",00:15 Hr,57 beats/min
same,"Respiration rate, Max",00:15 Hr,26 breaths/min
same,"Respiration rate, Mean ± SD",00:15 Hr,18.3 ± 3.20 breaths/min
same,"Respiration rate, Median",00:15 Hr,17.0 breaths/min
same,"Respiration rate, Min",00:15 Hr,15 breaths/min
same,"Systolic blood pressure, Max",00:15 Hr,155 mm of Hg
same,"Systolic blood pressure, Mean ± SD",00:15 Hr,138.0 ± 10.35 mm of Hg
same,"Systolic blood pressure, Median",00:15 Hr,134.5 mm of Hg
same,"Systolic blood pressure, Min",00:15 Hr,122 mm of Hg
same,Diastolic blood pressure Max,00:30 Hr,89 mm of Hg
same,Diastolic blood pressure Mean ± SD,00:30 Hr,80.3 ± 7.99 mm of Hg
same,Diastolic blood pressure Median,00:30 Hr,82.5 mm of Hg
same,Diastolic blood pressure Min,00:30 Hr,66 mm of Hg
same,"Pulse rate, Max",00:30 Hr,94 beats/min
same,"Pulse rate, Mean ± SD",00:30 Hr,80.5 ± 10.43 beats/min
same,"Pulse rate, Median",00:30 Hr,76.5 beats/min
same,"Pulse rate, Min",00:30 Hr,64 beats/min
same,"Respiration rate, Max",00:30 Hr,24 breaths/min
same,"Respiration rate, Mean ± SD",00:30 Hr,18.1 ± 2.73 breaths/min
same,"Respiration rate, Median",00:30 Hr,18.0 breaths/min
same,"Respiration rate, Min",00:30 Hr,13 breaths/min
same,"Systolic blood pressure, Max",00:30 Hr,155 mm of Hg
same,"Systolic blood pressure, Mean ± SD",00:30 Hr,135.9 ± 10.05 mm of Hg
same,"Systolic blood pressure, Median",00:30 Hr,133.5 mm of Hg
same,"Systolic blood pressure, Min",00:30 Hr,120 mm of Hg
same,Diastolic blood pressure Max,00:45 Hr,86 mm of Hg
same,Diastolic blood pressure Mean ± SD,00:45 Hr,76.4 ± 9.42 mm of Hg
same,Diastolic blood pressure Median,00:45 Hr,79.0 mm of Hg
same,Diastolic blood pressure Min,00:45 Hr,62 mm of Hg
same,"Pulse rate, Max",00:45 Hr,90 beats/min
same,"Pulse rate, Mean ± SD",00:45 Hr,76.0 ± 9.48 beats/min
same,"Pulse rate, Median",00:45 Hr,77.0 beats/min
same,"Pulse rate, Min",00:45 Hr,58 beats/min
same,"Respiration rate, Max",00:45 Hr,20 breaths/min
same,"Respiration rate, Mean ± SD",00:45 Hr,18.1 ± 1.91 breaths/min
same,"Respiration rate, Median",00:45 Hr,18.0 breaths/min
same,"Respiration rate, Min",00:45 Hr,15 breaths/min
same,"Systolic blood pressure, Max",00:45 Hr,160 mm of Hg
same,"Systolic blood pressure, Mean ± SD",00:45 Hr,138.3 ± 14.29 mm of Hg
same,"Systolic blood pressure, Median",00:45 Hr,137.0 mm of Hg
same,"Systolic blood pressure, Min",00:45 Hr,118 mm of Hg
same,Diastolic blood pressure Max,01:00 Hr,90 mm of Hg
same,Diastolic blood pressure Mean ± SD,01:00 Hr,74.5 ± 8.97 mm of Hg
same,Diastolic blood pressure Median,01:00 Hr,73.5 mm of Hg
same,Diastolic blood pressure Min,01:00 Hr,63 mm of Hg
same,"Pulse rate, Max",01:00 Hr,89 beats/min
same,"Pulse rate, Mean ± SD",01:00 Hr,75.3 ± 10.08 beats/min
same,"Pulse rate, Median",01:00 Hr,74.0 beats/min
same,"Pulse rate, Min",01:00 Hr,60 beats/min
same,"Respiration rate, Max",01:00 Hr,20 breaths/min
same,"Respiration rate, Mean ± SD",01:00 Hr,18.1 ± 1.73 breaths/min
same,"Respiration rate, Median",01:00 Hr,18.0 breaths/min
same,"Respiration rate, Min",01:00 Hr,15 breaths/min
same,"Systolic blood pressure, Max",01:00 Hr,160 mm of Hg
same,"Systolic blood pressure, Mean ± SD",01:00 Hr,134.4 ± 15.76 mm of Hg
same,"Systolic blood pressure, Median",01:00 Hr,133.0 mm of Hg
same,"Systolic blood pressure, Min",01:00 Hr,110 mm of Hg
same,Diastolic blood pressure Max,01:15 Hr,84 mm of Hg
same,Diastolic blood pressure Mean ± SD,01:15 Hr,74.6 ± 10.17 mm of Hg
same,Diastolic blood pressure Median,01:15 Hr,79.5 mm of Hg
same,Diastolic blood pressure Min,01:15 Hr,61 mm of Hg
same,"Pulse rate, Max",01:15 Hr,94 beats/min
same,"Pulse rate, Mean ± SD",01:15 Hr,73.4 ± 11.56 beats/min
same,"Pulse rate, Median",01:15 Hr,71.5 beats/min
same,"Pulse rate, Min",01:15 Hr,58 beats/min
same,"Respiration rate, Max",01:15 Hr,20 breaths/min
same,"Respiration rate, Mean ± SD",01:15 Hr,18.4 ± 2.20 breaths/min
same,"Respiration rate, Median",01:15 Hr,19.5 breaths/min
